Data set [1] has as its system P. berghei oocyst formation. As to the kind of experiment: Bioluminescence assay of oocyst formation in vitro (Day0-Day3). In kind it is cell-based, Plasmodium berghei. Conditions: mean. The method, then: (§1) Purified ookinetes were seeded with Drosophila melanogaster S2 cells (Drosophila Genomics Resource Center, Bloomington, USA) in a 1:10 ratio (10^4 ookinetes and 10^5 S2 cells) in Schneider’s medium (S0146, Sigma-Aldrich) supplemented with 15% FBS, penicillin/streptomycin (50 U/ml, 50 µg/ml) and gentamicin (50 µg/ml) to promote oocyst development. Oocysts were co-cultured with D. melanogaster S2 cells in flat bottom 96-well plates (Corning, New York, USA) for up to 15 days at 19 °C. One-quarter of the medium was changed 3 times per week (every 48 to 72 h), and 10^5 S2 cells were added once per week. In parallel, S2 cells were maintained at 27 °C in Schneider’s medium (S0146, Sigma-Aldrich) supplemented with 10% FBS and penicillin/streptomycin (50 U/ml, 50 µg/ml).
(§2) A bioluminescence assay was used to assess the development of the mosquito stages of PbCSGFP-Luc. In order to evaluate the effect of compounds on the development of the parasite’s mosquito stages, samples were collected at 3 different time points to determine the effect on ookinete and oocyst formation, and oocyst maturation, as previously described. The bioluminescence assay was performed using the Firefly Luciferase Assay Kit (Biotium, Hayward, USA) according to the manufacturer’s instructions, with some modifications. Briefly, the whole well contents were collected and spun down, washed with PBS, frozen in 50 µl of lysis buffer (1:5 ratio) and stored at − 20 °C until further use. Collected samples were lysed and 30 µl of the resulting supernatant were transferred into white 96-well plates. Fifty µl of D-luciferin in Firefly luciferase assay buffer (1:50 ratio) were added to the samples and parasite load was determined by measuring luminescence intensity using a microplate reader (Tecan Infinite M200, Zurich, Switzerland).
(§3) The effect of eprinomectin, abamectin, ivermectin, moxidectin, doramectin and emamectin on the Plasmodium mosquito stages was evaluated as previously described. The compounds were dissolved in dimethyl sulfoxide (DMSO) and the amount of DMSO equivalent to that present in the highest compound concentration was used as a control. The effect of 10 µM of each compound was assessed on ookinetes, and on oocyst development and maturation. Briefly, after 1 h of incubation, the compounds were added to 5 µl of infected blood cultures, and the bioluminescence intensity of the parasites on the ookinete cultures was assessed 24 h later. To assess the effect of the compounds on oocyst development and maturation, compounds were mixed with the mature ookinetes, and parasites collected after 3 days of culture or compounds were added to the oocyst culture after 3 days of culture, and parasites collected 15 days later.
(§4) Compound concentration resulting in 50% inhibition (IC50) for oocyst growth and maturation were estimated for eprinomectin, abamectin, ivermectin, moxidectin, doramectin and emamectin (assayed at 0.05, 0.5, 1, 5, 10, 25 and 50 µM) by nonlinear regression analysis.

For data set [2], the system named is P. berghei oocyst growth/maturation. In words: Bioluminescence assay of oocyst growth/maturation in vitro (Day3-Day15). Conditions: mean. In kind it is cell-based, Plasmodium berghei. The method, then: as §1, §2, §3, §4
Data set [3] relates to P. berghei ookinete formation. In words: Bioluminescence assay of ookinete formation in vitro. In kind it is cell-based, Plasmodium berghei. The conditions noted are these: 10 µM, 24 h. How it is done:
Plasmodium berghei ANKA expressing green fluorescent protein (GFP) and luciferase under the control of the circumsporozoite protein (CSP) promoter (line 784cl1, RMgm-152, PbCSPGFP-Luc) was maintained in Anopheles stephensi mosquitoes and BALB/cByJ mice. To maintain gametocyte infectivity, only up to six passages of parasites from infected to naïve mice were performed. Ookinete in vitro production was performed as previously described. Briefly, BALB/cByJ mice were treated with 0.1 ml phenylhydrazine (25 mg/ml) 3 days prior to infection with 10^7 P. berghei-infected red blood cells (iRBC) obtained from a donor mouse. On the third day after infection, gametocytemia was monitored by light microscopy for the presence of exflagellating gametocytes in ookinete medium (1:4 dilution). […]
A bioluminescence assay was used to assess the development of the mosquito stages of PbCSGFP-Luc. […] Fifty µl of D-luciferin in Firefly luciferase assay buffer (1:50 ratio) were added to the samples and parasite load was determined by measuring luminescence intensity using a microplate reader (Tecan Infinite M200, Zurich, Switzerland).
The effect of eprinomectin, abamectin, ivermectin, moxidectin, doramectin and emamectin on the Plasmodium mosquito stages was evaluated as previously described. […] The effect of 10 µM of each compound was assessed on ookinetes, and on oocyst development and maturation. […]

In data set [4] the test system is Drosophila melanogaster S2 cells. As to the kind of experiment: AlamarBlue in vitro cytotoxicity assay. In kind it is cell-based. Conditions: 10 µM, up to 7 days. The method, then:
Compounds were screened for their in vitro cytotoxicity against D. melanogaster S2 cells, using the AlamarBlue® assay (Invitrogen, Carlsbad, USA). This assay allows to measure metabolic activity based on a fluoremetric/colorimetric indicator [28]. To assess the effect of the compounds on cell development, Drosophila melanogaster S2 cells were seeded in a 1:10 ratio (10^5 S2 cells) in Schneider’s medium (S0146, Sigma-Aldrich) supplemented with 15% FBS, penicillin/streptomycin (50 U/ml, 50 µg/ml) and gentamicin (50 µg/ml). All the above-mentioned compounds were added to the S2 cell cultures to a final concentration of 10 µM and the amount of DMSO equivalent to that present in the highest compound concentration was used as a control. Cultures were maintained for 7 days and one-quarter of the medium was changed 3 times per week every 48 to 72 h. Samples were collected every day by removing 120 µl of medium and adding 80 µl of AlamarBlue previously diluted in Schneider’s medium (1:10 dilution) to each well. The suspension was transferred to a 96 well flat bottom plate and incubated for one and a half hours at 37 °C. Fluorescence intensity was then measured using a microplate reader (Tecan Infinite M200) at 530 nm excitation wavelength/590 nm emission wavelength to determine cell viability.
A general note: The colour change of resazurin is a common sign of viable cells or microbes.

The test system of data set [5] is P. berghei asexual and sexual blood stages. As to the kind of experiment: In vivo activity of ivermectin against P. berghei blood stages in infected mice (flow cytometry, microscopy). Also on record: species or system Plasmodium berghei (BALB/cByJ mice). Conditions: single oral gavage 5 mg/kg, up to 5 days after infection. The text has this: Male BALB/cByJ mice (6–8 weeks-old) purchased from Charles River Laboratories Inc. (Lyon, France) were used. Two parasite lines were employed in the experimental work, a transgenic parasite line termed PbCSGFP-Luc (RMgm-152),which expresses the fusion gene gfp-luc under the control of the csp promotor (PBANKA_0403200) integrated into the silent 230p gene locus (PBANKA_0306000), and the transgenic parasite line PbFluo-frmg (RMgm-164), which expresses GFP under control of the ‘male gametocyte-specific’ promoter of PB000791.03.0 (dynein heavy chain, putative) and RFP under the control of the ‘female gametocyte-specific’ promoter PB000504.02.0 (LCCL domain-containing protein CCP2). The rfp and gfp genes are integrated into the genome in the 230p locus (PBANKA_0306000).
In order to assess the in vivo activity of Iv, five BALB/cByJ (Charles River) mice per experimental group were infected by intraperitoneal injection of 10^7 P. berghei Fluo-frmg-infected red blood cells. Parasitaemia and gametocyteamia were measured the following days by flow cytometry analysis of 4 µl of tail blood. Blood was collected in 200 µl of PBS and 100 µl stored at 4 °C, while the remaining was transferred to 100 µl of PBS containing […] of red fluorescent nucleic acid stain Syto®61 (Thermo Fisher Scientific, Waltham, USA) and incubated for 20 min at room temperature in the dark. The samples were analysed on a LSRFortessa X-20 flow cytometer (Becton, Dickinson and Co., New Jersey, USA). Female and male gametocytes were gated based on the analysis of GFP and Red Fluorescence Protein (RFP) fluorescence, and parasitemia was estimated based on the analysis of Syto®61 and forward scatter. The positive cell population was determined by comparison of infected blood samples with an uninfected blood sample. Results were then analysed with the FlowJo^TM Software (Version 10, FlowJo^TM Software, Ashland, USA). Exflagellation was also monitored every day, until parasitemia reached 3% by microscopy analysis. To this end, 2.5 µl of tail blood were collected and mounted on a glass slide, and 8 min later the number of exflagellation events present in 4 independent fields of vision at 40× were determined. When parasitemia reached up to 3%, either DMSO or ivermectin were administered by oral gavage, at a concentration of 5 mg/kg, to five mice of each experimental group. Parasitemia, gametocytemia and exflagellation were monitored for 3 days after treatment, following which the mice were euthanized, and the experiment was terminated.
(A flow cytometer gives signals particle by particle.)

As a reminder, the IC50 is the concentration needed to halve the response being measured. Low values mean inhibition by little substance, high ones a need for much substance. In the case of abamectin, the IC50 was found to be 8.77 µM in data set [1] and 7.93 µM in data set [2].
As to `CO[C@H]1C[C@H](O[C@H]2[C@H](C)O[C@@H](O[C@@H]3/C(C)=C/C[C@@H]4C[C@@H](C[C@]5(C=C[C@H](C)[C@@H](C6CCCCC6)O5)O4)OC(=O)[C@@H]4C=C(C)[C@@H](O)[C@H]5OC/C(=C\C=C\[C@@H]3C)[C@]54O)C[C@@H]2OC)O[C@@H](C)[C@@H]1O` [Doramectin, doramectin], the IC50 in data set [1] was found to be 7.08 µM; in data set [2] it was 4.32 µM.
Consider emamectin, for which the IC50 in data set [1] amounted to 7.31 µM; in data set [2] it was 7.36 µM. For the same molecule, the “inhibition of ookinete formation (transformation of gametes/zygote into ookinetes)” value in data set [3] was “approximately 47%”. For the same molecule, the “cytotoxicity against S2 cells (cell viability)” value in data set [4] is “displays some cytotoxicity”.
On to `CO/N=C1\C[C@]2(C[C@@H]3C[C@@H](C/C=C(\C)C[C@@H](C)/C=C/C=C4\CO[C@@H]5[C@H](O)C(C)=C[C@@H](C(=O)O3)[C@]45O)O2)O[C@H](/C(C)=C/C(C)C)[C@H]1C` [Moxidectin, moxidectin], for which the figures for the IC50 in data set [1] (Plasmodium berghei) and in data set [2] (Plasmodium berghei) were 10.8 µM and 5.49 µM, respectively.
In data set [1], ivermectin came in with an IC50 of 11.6 µM. Besides, the “inhibition of ookinete formation (transformation of gametes/zygote into ookinetes)” value in data set [3] was “very small and non-significant impact”. Moreover, in data set [5], the “exflagellation events vs untreated controls” value is “no statistically significant differences”, the “female gametocytemia vs untreated controls” value is “no statistically significant differences”, the “male gametocytemia vs untreated controls” value is “no statistically significant differences” and the “overall parasitemia vs untreated controls” value is on record as “no statistically significant differences”. In data set [2], this molecule gave an IC50 of 9.32 µM.
Consider eprinomectin, for which the IC50 in data set [1] is 5.7 µM; in data set [2] it was 4.59 µM.

The values above are taken from PMC6873674, “Inhibition of Plasmodium sporogonic stages by ivermectin and other avermectins” (Parasites & Vectors, 2019).
